# Laboratory results from ChEMBL document CHEMBL5625250, “Discovery of novel flavonoid-based CDK9 degraders for prostate cancer treatment via a PROTAC strategy” (Eur J Med Chem, 2023).
# The source made the active and inactive calls. No cut-off for these calls is given here.
# Columns and labels:
# [1] = Solubility of the compound in water at pH 7.4 by shake flask method; assay type: physicochemical
# [2] = molecular target: T1, Protein cereblon/Cyclin-dependent kinase 9 (Homo sapiens, UniProt P50750+Q96SW2); assay: PROTAC activity at CRBN/CDK9 in human 22Rv1 cells assessed as degradation of CDK9 protein at 100 nM incubated for 12 hrs by Western blotting analysis; assay type: cell-based
# [3] = Solubility of the compound in water at pH 6.0 by shake flask method; assay type: physicochemical
# [4] = molecular target: T2, Cyclin-dependent kinase 9 (Homo sapiens, UniProt P50750); assay: Inhibition of CDK9 (unknown origin) at 20 nM in presence of ATP by ADP-Glo kinase assay relative to control
# [5] = tested on: CWR22R; assay: Antiproliferative activity against human 22Rv1 cells assessed as reduction in cell viability incubated for 72 hrs by SRB assay; assay type: functional, cell-based; settings: 22Rv1, 72 h
# [6] = molecular target: T1, Protein cereblon/Cyclin-dependent kinase 9; assay: PROTAC activity at CRBN/CDK9 in human 22Rv1 cells assessed as reduction in cyclin T1 expression at 1.5 uM incubated for 24 hrs by Western blotting analysis; assay type: cell-based
# [7] = molecular target: T2, Cyclin-dependent kinase 9; assay: Inhibition of CDK9 (unknown origin) in presence of ATP by ADP-Glo kinase assay
# T2 sequence (P50750 whole entry): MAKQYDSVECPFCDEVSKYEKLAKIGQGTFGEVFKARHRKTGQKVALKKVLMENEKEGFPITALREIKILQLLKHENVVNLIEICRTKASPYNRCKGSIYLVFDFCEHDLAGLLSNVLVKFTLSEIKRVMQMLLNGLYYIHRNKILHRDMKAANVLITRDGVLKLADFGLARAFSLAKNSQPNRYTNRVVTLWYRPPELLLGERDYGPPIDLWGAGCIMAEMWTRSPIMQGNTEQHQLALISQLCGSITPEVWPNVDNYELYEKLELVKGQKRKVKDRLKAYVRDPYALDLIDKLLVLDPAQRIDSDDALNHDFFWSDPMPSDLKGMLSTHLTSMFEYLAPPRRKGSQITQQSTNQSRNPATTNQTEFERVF
# T1 sequence (P50750 whole entry, looked up): as the sequence (P50750 whole entry) above
# T1 sequence (Q96SW2 whole entry, looked up): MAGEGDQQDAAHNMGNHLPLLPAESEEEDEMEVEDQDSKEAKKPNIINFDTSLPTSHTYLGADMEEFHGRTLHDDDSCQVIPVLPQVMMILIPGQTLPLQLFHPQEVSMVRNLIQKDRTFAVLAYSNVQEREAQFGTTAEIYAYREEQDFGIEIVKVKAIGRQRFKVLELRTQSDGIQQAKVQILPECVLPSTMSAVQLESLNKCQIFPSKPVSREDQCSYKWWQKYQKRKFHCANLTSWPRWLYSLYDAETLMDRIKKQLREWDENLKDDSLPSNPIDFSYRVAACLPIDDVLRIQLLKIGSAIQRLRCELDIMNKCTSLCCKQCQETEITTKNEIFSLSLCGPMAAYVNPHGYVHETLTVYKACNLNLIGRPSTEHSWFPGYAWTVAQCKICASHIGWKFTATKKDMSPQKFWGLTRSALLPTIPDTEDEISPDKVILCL
Structure (SMILES),solubility thermodynamic [1],Activity [2],solubility thermodynamic [3],inhibition [4],IC50 [5],Activity [6],IC50 [7]
COc1cc(O)c2c(=O)cc(-c3ccc(N4CCN(C(=O)CCCCOc5cccc6c5C(=O)N(C5CCC(=O)NC5=O)C6=O)CC4)cc3)oc2c1C1=CCN(C)CC1 (configuration not stated),< 10 µg/mL,Active,< 10 µg/mL,74.2%,0.86 µM,–,–
COc1cc(O)c2c(=O)cc(-c3ccc(N4CCN(C)CC4)cc3)oc2c1C1=CCN(C)CC1,–,–,–,69.2%,1.25 µM,inactive,0.0667 µM
CN1CC[C@H](c2c(O)cc(O)c3c(=O)cc(-c4ccccc4Cl)oc23)[C@H](O)C1 [ALVOCIDIB],–,–,–,–,0.24 µM,–,–
COc1cc(O)c2c(=O)cc(-c3ccc(N4CCN(CCC5CCN(c6ccc7c(c6)C(=O)N(C6CCC(=O)NC6=O)C7=O)CC5)CC4)cc3)oc2c1C1=CCN(C)CC1 (configuration not stated),45 µg/mL,–,117 µg/mL,75%,0.35 µM,–,–

# Now from value to compound, other results behind:
solubility thermodynamic [1],Activity [2],solubility thermodynamic [3],inhibition [4],Structure (SMILES),IC50 [5],Activity [6],IC50 [7]
< 10 µg/mL,–,< 10 µg/mL,69.5%,COc1cc(O)c2c(=O)cc(-c3ccc(N4CCN(C(=O)CCCCCCCOc5cccc6c5C(=O)N(C5CCC(=O)NC5=O)C6=O)CC4)cc3)oc2c1C1=CCN(C)CC1 (configuration not stated),1.81 µM,–,–
< 10 µg/mL,–,< 10 µg/mL,69.9%,COc1cc(O)c2c(=O)cc(-c3ccc(N4CCN(C(=O)CCCCCOc5cccc6c5C(=O)N(C5CCC(=O)NC5=O)C6=O)CC4)cc3)oc2c1C1=CCN(C)CC1 (configuration not stated),0.65 µM,–,–
